Source: patent US5990170A, “Therapeutic use of mono and bicarboxylic acid amides active at the peripheral cannabinoid receptor” (Lifegroup S.p.A., priority 1994, dated 1999)
Read-outs that look alike come from different tables or passages of the source.

What was measured:
RBL-2H3 cells = experiment: Inhibition of 3H-serotonin release induced by ADNP/DNP-HSA immunogenic stimulation in RBL-2H3 cells; type: cell-based, rat; conditions: for inhibition at 100 µM: 100 μM (Table 8); for EC50: 15 minutes release period (Table 9); for effect of anandamide co-incubation on the ability to inhibit serotonin release: co-incubation with anandamide, in words; for functional effect following receptor activation (serotonin release): result in words; for inhibition at 12.5 µM: RBL-2H3, read-out: 3H-serotonin net release inhibition (%), 12.5 μM
[1] = Solubility in water and organic solvents; conditions: for solubility in water: result in words
[2] = Rattus norvegicus, RBL-2H3, read-out: 3H-serotonin release inhibition %, 0.2% DMSO
[3] = Rattus norvegicus, RBL-2H3, read-out: 3H-serotonin release inhibition %, 1% DMSO
[4] = Rattus norvegicus, RBL-2H3, read-out: EC50, concentration inhibiting by 50% the net release of 3H serotonin, 0.2% DMSO
[5] = Rattus norvegicus, RBL-2H3, read-out: EC50, concentration inhibiting by 50% the net release of 3H serotonin, 1% DMSO
[6] = dmso, organic solvent or mixture
[7] = ethanol, organic solvent or mixture
[8] = Rattus norvegicus, RBL-2H3, read-out: 3H-serotonin release inhibition %, 0.2% DMSO, 30 μM (Table 8)
[9] = Rattus norvegicus, RBL-2H3, 0.25 h, 100 μM, 0.1% DMSO and 0.1% ethanol (Table 3), read-out: 3H-serotonin net release (%)
[10] = chloroform, organic solvent or mixture
[11] = read-out: ED50, inhibition of 3H-serotonin release, + anandamide (12.5 μM) (Table 5), 15 min
[12] = n-octanol, organic solvent or mixture
[13] = Rattus norvegicus, RBL-2H3, 0.25 h, read-out: 3H-serotonin net release (%)
[14] = Rattus norvegicus, RBL-2H3, 0.25 h, read-out: ED50
[15] = Rattus norvegicus, + WIN 55,212-2 (30 μm) (Table 6)
[16] = Rattus norvegicus, - WIN (Table 6)

Row | SMILES | EC50 (RBL-2H3 cells; [4]) [µM] | EC50 (RBL-2H3 cells; [5]) [µM] | solubility [1, 6] [mg/mL] | solubility [1, 7] [mg/mL] | solubility in water [1] | further results
1 | CCCCCCCCCCCCCCCC(=O)N[C@H](CO)c1ccccc1 [Example 2, N-palmitoyl-[(S)-2-amino-2-phenylethanol]] | 1.8 | 5 | > 10 | > 10 | scarcely soluble | inhibition at 100 µM (RBL-2H3 cells; [2]): 100%; inhibition at 100 µM (RBL-2H3 cells; [3]): 100%
2 | CCCCCCCCCCCCCCCC(=O)NCC(O)c1ccccc1 (centres unmarked) [Example 3, N-(2-hydroxy-2-phenylethyl)-palmitoylamide] | 1.2 | 4 | > 10 | > 10 | scarcely soluble | inhibition at 100 µM (RBL-2H3 cells; [2]): 100%; inhibition at 100 µM (RBL-2H3 cells; [3]): 100%
3 | CCCCCCCCCCCCCCCC(=O)N[C@@H](CO)[C@@H](O)c1ccccc1 [Example 4, N-palmitoyl-[(1S,2S)-(+)-2-amino-1-phenyl-1,3-propanediol]] | 78 | 1.05 | > 10 | > 10 | scarcely soluble | inhibition at 100 µM (RBL-2H3 cells; [2]): 100%; inhibition at 100 µM (RBL-2H3 cells; [3]): 100%
4 | CCCCCCCCCCCCCCCC(=O)N[C@H](C)[C@@H](O)c1ccccc1 [Example 5, N-palmitoyl-[(1S,2R)-(+)-norephedrine]] | 8 | 7.6 | > 10 | > 10 | scarcely soluble | inhibition at 30 µM (RBL-2H3 cells; [8]): 82%; inhibition at 100 µM (RBL-2H3 cells; [3]): 100%
5 | CCCCCCCCCCCC(=O)N[C@H](C)[C@@H](O)c1ccccc1 [Example 6, N-lauroyl-[(1S,2R)-(+)-norephedrine]] | 30 | 8.8 | > 10 | > 10 | scarcely soluble | 
6 | CCCCCCCCCCCCCCCC(=O)N[C@@H](C)[C@H](O)c1ccccc1 [Example 7, N-palmitoyl-[(1R,2S)-(-)-norephedrine]] | 4.7 |  | > 10 | > 10 | scarcely soluble | inhibition at 30 µM (RBL-2H3 cells; [8]): 93%; inhibition at 100 µM (RBL-2H3 cells; [3]): 100%
7 | CCCCCCCCCCCC(=O)N[C@@H](C)[C@H](O)c1ccccc1 [Example 8, N-lauroyl-[(1R,2S)-(-)-norephedrine]] | 18 |  | > 10 | > 10 | scarcely soluble | 
8 | CCCCCCCCCCCCCCCC(=O)N[C@H](CO)Cc1ccccc1 [Example 9, N-palmitoyl-[(S)-(-)-2-amino-3-phenyl-1-propanol]] |  |  |  |  | scarcely soluble | activity at 100 µM (RBL-2H3 cells; [9]): 0%; inhibition at 100 µM (RBL-2H3 cells; [2]): 100%; effect of anandamide co-incubation on the ability to inhibit serotonin release (RBL-2H3 cells): reduces the ability; solubility [1, 10]: > 10 mg/mL
9 | CCCCCCCCCCCCCCCC(=O)N[C@@H](CO)Cc1ccccc1 [Example 10, N-palmitoyl-[(R)-(+)-2-amino-3-phenyl-1-propanol]] |  |  |  |  | scarcely soluble | activity at 100 µM (RBL-2H3 cells; [9]): 0%; effect of anandamide co-incubation on the ability to inhibit serotonin release (RBL-2H3 cells): reduces the ability; solubility [1, 10]: > 10 mg/mL
10 | CCCCCCCCCCCC(=O)NCCc1ccc(O)cc1 [Example 11, N-(p-hydroxyphenylethyl)-lauroylamide] | 26 |  | > 10 | > 10 | scarcely soluble | 
11 | CCCCCCCCCCCC(=O)NCCCO [Example 12, N-(3-hydroxypropyl)-lauroylamide] | 44 | 1.1 | > 10 | > 10 | scarcely soluble | inhibition at 100 µM (RBL-2H3 cells; [2]): 86%; inhibition at 100 µM (RBL-2H3 cells; [3]): 100%; IC50 (RBL-2H3 cells; [11]): 29 µM; IC50 (RBL-2H3 cells; read-out: ED50, inhibition of 3H-serotonin release, - anandamide (Table 5), 15 min): 1.1 µM
12 | O=C(/C=C/CCCCCCCCC(=O)NCCCO)NCCCO [Example 13, N,N'-bis(3-hydroxypropyl)-trans-2-dodecenediamide] |  | 32 | > 5 |  | scarcely soluble | inhibition at 200 µM (RBL-2H3 cells; Rattus norvegicus, RBL-2H3, read-out: 3H-serotonin release inhibition %, 0.2% DMSO, 200 μM (Table 8)): 65%
13 | CCCCCCCCCCCCCCCC(=O)N(C)CCO [Example 14, N-methyl-N-(2-hydroxyethyl)-palmitoylamide] |  |  | > 10 |  | scarcely soluble | solubility [1, 12]: > 10 mg/mL
14 | CCCCCCCCCCCCCCCC(=O)NC(CO)CO [Example 15, 2-(N-palmitoylamino)-1,3-propandiol] |  |  | > 5 | > 5 | scarcely soluble | 
15 | CCCCCCCCCCCCCCCC(=O)NCCOP(=O)(O)OCC(O)CO (centres unmarked) [Example 16, N-palmitoylethanolamine glycerophosphate] |  |  | > 10 |  | scarcely soluble | solubility ([1]; phosphate buffer, pH 7.4, aqueous buffer): > 1 mg/mL
16 | O=C(/C=C/CCCCCCCCC(=O)NCCCCO)NCCCCO [Example 17, N,N'-bis(4-hydroxybutyl)-trans-2-dodecendiamide] |  |  | > 5 |  | scarcely soluble | 
17 | CCCCCCCCCCCC(=O)NCCCCO [Example 18, N-(4-hydroxybutyl)-lauroylamide] | 63 |  | > 10 | > 10 | scarcely soluble | 
18 | CCCCCCCC/C=C\CCCCCCCC(=O)NCc1ccc(O)c(OC)c1 [Example 20, N-(4-hydroxy-3-methoxybenzyl)-oleoylamide] | 6.3 |  | > 10 | > 10 | scarcely soluble | 
19 | CCCCCCCCCCCCCCCC(=O)NCc1ccc(O)c(OC)c1 [Example 21, N-(4-hydroxy-3-methoxybenzyl)-palmitoylamide] | 1.5 |  | > 10 | > 10 | scarcely soluble | 
20 | CCCCCCCCCCCCCCCC(=O)NCCCO [Example 24, N-(3-hydroxypropyl)-palmitamide] |  | 7.2 | > 3 |  | scarcely soluble | activity at 60 µM (RBL-2H3 cells; Rattus norvegicus, RBL-2H3, 0.25 h, 60 μM, 0.1% DMSO and 0.1% ethanol (Table 3), read-out: 3H-serotonin net release (%)): 67%; inhibition at 60 µM (RBL-2H3 cells; Rattus norvegicus, RBL-2H3, read-out: 3H-serotonin release inhibition %, 0.2% DMSO, 60 μM (Table 8)): 40%; inhibition at 100 µM (RBL-2H3 cells; [3]): 88%; solubility [1, 12]: > 10 mg/mL
21 | O=C(/C=C/CCCCCCCCC(=O)N1CCOCC1)N1CCOCC1 [Example 38, 1,10-bis-morpholinylcarbonyl-trans-1-decene] |  |  | > 10 | > 10 | scarcely soluble | 
22 | CCCCC/C=C\C/C=C\CCCCCCCC(=O)NCCO [N-(2-hydroxyethyl)-linoleylamide, reference compound] |  |  |  |  |  | activity at 100 µM (RBL-2H3 cells; [13]): 100%
23 | Cc1c(C(=O)c2cccc3ccccc23)c2cccc3c2n1[C@H](CN1CCOCC1)CO3 [WIN 55,212-2, reference compound] |  |  |  |  |  | 3H-serotonin release inhibition (%) (RBL-2H3 cells; 5 μm, (+) N-(2-hydroxyethyl)-palmitoleylamide (Example 19) (Table 7)): 8%; 3H-serotonin release inhibition (%) (RBL-2H3 cells; 5 μm, (-) N-(2-hydroxyethyl)-palmitoleylamide (Table 7)): 8%; 3H-serotonin release inhibition (%) (RBL-2H3 cells; 10 μm, (+) N-(2-hydroxyethyl)-palmitoleylamide (Example 19) (Table 7)): 10%; 3H-serotonin release inhibition (%) (RBL-2H3 cells; 10 μm, (-) N-(2-hydroxyethyl)-palmitoleylamide (Table 7)): 12%; 3H-serotonin release inhibition (%) (RBL-2H3 cells; 50 μm, (+) N-(2-hydroxyethyl)-palmitoleylamide (Example 19) (Table 7)): 24%; 3H-serotonin release inhibition (%) (RBL-2H3 cells; 50 μm, (-) N-(2-hydroxyethyl)-palmitoleylamide (Table 7)): 76%; 3H-serotonin release inhibition (%) (RBL-2H3 cells; 70 μm, (+) N-(2-hydroxyethyl)-palmitoleylamide (Example 19) (Table 7)): 30%; 3H-serotonin release inhibition (%) (RBL-2H3 cells; 70 μm, (-) N-(2-hydroxyethyl)-palmitoleylamide (Table 7)): 96%; 3H-serotonin release inhibition (%) (RBL-2H3 cells; 100 μm, (+) N-(2-hydroxyethyl)-palmitoleylamide (Example 19) (Table 7)): 56%; 3H-serotonin release inhibition (%) (RBL-2H3 cells; 100 μm, (-) N-(2-hydroxyethyl)-palmitoleylamide (Table 7)): 98%; activity at 50 µM (RBL-2H3 cells; [13]): 0%; IC50 (RBL-2H3 cells; [14]): 6.4 µM; inhibition at 30 µM (RBL-2H3 cells; Rattus norvegicus, RBL-2H3, read-out: 3H-serotonin net release inhibition (%), 30 μM, + anandamide (12.5 μM) (Table 4)): 36%; inhibition at 30 µM (RBL-2H3 cells; Rattus norvegicus, RBL-2H3, read-out: 3H-serotonin net release inhibition (%), 30 μM, - anandamide (Table 4)): 100%; 3H-serotonin net release inhibition (%) (RBL-2H3 cells; WIN 55,212-2 30 μm alone (DNP.HSA line, + WIN) (Table 6)): 69%; IC50 (RBL-2H3 cells; [11]): 40 µM; functional effect following receptor activation (serotonin release) (RBL-2H3 cells): able to inhibit, in a concentration-dependent way, RBL cells immunogenic activation
24 | CCCCC/C=C\C/C=C\C/C=C\C/C=C\CCCC(=O)O [arachidonic acid, reference compound] |  |  |  |  |  | inhibition at 12.5 µM (RBL-2H3 cells; [15]): 59%; inhibition at 12.5 µM (RBL-2H3 cells; [16]): 4%
25 | NCCO [ethanolamine, reference compound] |  |  |  |  |  | inhibition at 12.5 µM (RBL-2H3 cells; [15]): 72%; inhibition at 12.5 µM (RBL-2H3 cells; [16]): 6%
26 | CCCCCc1cc(O)c2c(c1)OC(C)(C)[C@@H]1CC=C(C)C[C@@H]21 [Δ8-THC, Δ8-tetrahydrocannabinol, reference compound] |  |  |  |  |  | activity at 25 µM (RBL-2H3 cells; [13]): 0%; IC50 (RBL-2H3 cells; [14]): 5 µM; inhibition at 25 µM (RBL-2H3 cells; Rattus norvegicus, RBL-2H3, read-out: 3H-serotonin net release inhibition (%), 25 μM, - anandamide (Table 4)): 100%; functional effect following receptor activation (serotonin release) (RBL-2H3 cells): able to inhibit, in a concentration-dependent way, RBL cells immunogenic activation
